Assays:
Type in all cases: in vivo
Erysiphe graminis—ERYSGT = assay: Wheat powdery mildew greenhouse test, curative and protectant; set-up: scale not given here; conditions: for ERYSGT 3DC: 3DC (curative); for ERYSGT 7DP: 7DP (protectant)
Description: (§1) Pathogen propagation and host inoculation. Plants were inoculated with various pathogens 1-4 days before compound application (curative tests) and 1-7 days after compound application (protectant tests). For all wheat trials, compounds were applied at growth stage 1.2, when the second leaf was expanded to about ½ of its final size (12 days after seeds were first watered). Information on the growth stages of other plant species at the time compound application and on the propagation and inoculation procedures associated with each pathogen is given below.
ERYSGT: Wheat seedlings were infected with fresh spores from the obligate pathogen ERYSGT by shaking heavily infected wheat plants over them. Plants that had been dusted with ERYSGT spores were incubated in the greenhouse at 22° C. until disease symptoms had fully developed (usually 7 days).

Septoria tritici—SEPTTR = assay: Wheat leaf blotch greenhouse test, curative and protectant; set-up: scale not given here; conditions: for SEPTTR 3DC: 3DC (curative); for SEPTTR 7DP: 7DP (protectant)
Description: as §1
SEPTTR: Fresh inoculum is prepared in a manner similar to that described for LEPTNO. In this case, a brownish layer of spores covers the entire surface of the PDA plate and only a few plates are needed to obtain a large number of spores. After incubation overnight in the 20° C. dew chamber, inoculated plants were continually misted for 3 days in a 20° C. greenhouse, then grown at 20° C. without mist until disease symptoms had fully developed (usually about 10 days).
(§2) LEPTNO: Fresh inoculum was prepared by streaking PDA plates with spore exudates from an older plate using a sterile spatula. The plates were incubated at 18° C. under black lights and typically produced large quantities of spores in pink exudate in 6-7 days. A small amount of tap water was poured onto several plates and spores were collected by scraping the exudates off the PDA surface into the water. The spore solutions were combined in a large beaker, diluted with 200-300 ml of water and filtered through a 180 u mesh screen. The spore concentration was determined using a hemacytometer and water was added to obtain a final concentration of 10^7 spores/ml. Approximately 3 large drops of Tween 20 were added for each 100 ml of volume and the spore solution was sprayed to run-off on wheat seedlings. Inoculated plants were placed in a 20° C. dew chamber overnight, then moved to a 20° C. greenhouse where they were continually misted (12 seconds of mist every minute) until disease symptoms were fully developed (8-10 days).

Septoria nodorum—LEPTNO = assay: Wheat glume blotch greenhouse test, curative and protectant; set-up: scale not given here; conditions: for LEPTNO 3DC: 3DC (curative); for LEPTNO 7DP: 7DP (protectant)
Description: as §1, §2

[1] = system: Puccinia recondita—PUCCRT; assay: Wheat brown rust greenhouse test, curative and protectant; conditions: for PUCCRT 3DC: 3DC (curative); for PUCCRT 7DP: 7DP (protectant)
Description: as §1
PUCCRT: Spores of the obligate pathogen PUCCRT were collected from infected plants with a vacuum apparatus and stored at 4° C. Approximately 0.1 g of fresh spores (stored at 4° C. for less than 30 days) was mixed with several drops of Tween 20. The thick spore paste was diluted to 100 ml with water and sprayed to run-off on wheat seed seedlings. Plants inoculated with PUCCRT were kept in a 20° C. dew chamber overnight and then transferred to a 20° C. growth chamber where symptoms developed in 8-9 days.

| Molecule | SEPTTR 3DC (Septoria tritici—SEPTTR; rate 15.5 g ai/ha) | SEPTTR 7DP (Septoria tritici—SEPTTR; rate 15.5 g ai/ha) | SEPTTR 3DC (Septoria tritici—SEPTTR; rate 31.3 g ai/ha) | SEPTTR 7DP (Septoria tritici—SEPTTR; rate 31.3 g ai/ha) | SEPTTR 3DC (Septoria tritici—SEPTTR; rate 62.5 g ai/ha) | SEPTTR 7DP (Septoria tritici—SEPTTR; rate 62.5 g ai/ha) | SEPTTR 3DC (Septoria tritici—SEPTTR; rate 125 g ai/ha) | SEPTTR 7DP (Septoria tritici—SEPTTR; rate 125 g ai/ha) | LEPTNO 3DC (Septoria nodorum—LEPTNO; rate 15.5 g ai/ha) | LEPTNO 7DP (Septoria nodorum—LEPTNO; rate 15.5 g ai/ha) | LEPTNO 3DC (Septoria nodorum—LEPTNO; rate 31.3 g ai/ha) | LEPTNO 7DP (Septoria nodorum—LEPTNO; rate 31.3 g ai/ha) | LEPTNO 3DC (Septoria nodorum—LEPTNO; rate 62.5 g ai/ha) | LEPTNO 7DP (Septoria nodorum—LEPTNO; rate 62.5 g ai/ha) | LEPTNO 3DC (Septoria nodorum—LEPTNO; rate 125 g ai/ha) | LEPTNO 7DP (Septoria nodorum—LEPTNO; rate 125 g ai/ha) | PUCCRT 3DC ([1]; rate 15.5 g ai/ha) | PUCCRT 7DP ([1]; rate 15.5 g ai/ha) | PUCCRT 3DC ([1]; rate 31.3 g ai/ha) | PUCCRT 7DP ([1]; rate 31.3 g ai/ha) | also measured |
| --- | --- | --- | --- | --- | --- | --- | --- | --- | --- | --- | --- | --- | --- | --- | --- | --- | --- | --- | --- | --- | --- |
| 2-[[[3-chloro-5-[5-[3-methylisothiazoly]]-2-pyridinyl]-oxy]methyl]-alpha-(methoxyimino)-N-methylbenzeneacetamide [Compound 1] | 22 | 53 | 59 | 88 | 85 | 76 | 99 | 91 | 58 | 46 | 60 | 50 | 53 | 95 | 71 | 98 | 93 | 80 | 99 | 94 | ERYSGT 3DC (Erysiphe graminis—ERYSGT; rate 15.5 g ai/ha): 88; ERYSGT 7DP (Erysiphe graminis—ERYSGT; rate 15.5 g ai/ha): 51; ERYSGT 3DC (Erysiphe graminis—ERYSGT; rate 31.3 g ai/ha): 92; ERYSGT 7DP (Erysiphe graminis—ERYSGT; rate 31.3 g ai/ha): 45; ERYSGT 3DC (Erysiphe graminis—ERYSGT; rate 62.5 g ai/ha): 94; ERYSGT 7DP (Erysiphe graminis—ERYSGT; rate 62.5 g ai/ha): 88; ERYSGT 3DC (Erysiphe graminis—ERYSGT; rate 125 g ai/ha): 97; ERYSGT 7DP (Erysiphe graminis—ERYSGT; rate 125 g ai/ha): 100; PUCCRT 3DC ([1]; rate 62.5 g ai/ha): 100; PUCCRT 7DP ([1]; rate 62.5 g ai/ha): 100; PUCCRT 3DC ([1]; rate 125 g ai/ha): 100; PUCCRT 7DP ([1]; rate 125 g ai/ha): 100 |
| CNC(=O)C(=NOC)c1ccccc1COc1ncc(-c2snc(C)c2Br)cc1C [Compound 2, 2-[[[3-methyl-5-[5-[4-bromo-3-methylisothiazolyl]]-2-pyridinyl]-oxy]methyl]-alpha-(methoxyimino)-N-methylbenzeneacetamide] | 97 | 85 | 83 | 85 | 90 | 96 | 95 | 97 | 65 | 65 | 73 | 79 | 47 | 84 | 67 | 98 | 50 | 100 | 63 | 100 | PUCCRT 3DC ([1]; rate 62.5 g ai/ha): 93; PUCCRT 7DP ([1]; rate 62.5 g ai/ha): 100; PUCCRT 3DC ([1]; rate 125 g ai/ha): 93; PUCCRT 7DP ([1]; rate 125 g ai/ha): 100 |

From patent publication US20040002545A1, “Thiazole derivatives of 2-methoxyimino-2-(pyridinyloxymethyl)-phenyl-acetamides useful as fungicides” (priority 2003, published 2004)
